Data from US10149887B2, “Peptides and peptidomimetics in combination with t cell activating and/or checkpoint inhibiting agents for cancer treatment” (CanBas Co., Ltd., priority 2015, dated 2018).
Square brackets hold non-standard residues; d marks the D form. Peptide text beside a SMILES is read from it. dPhe(F5) = N[C@H](Cc1c(F)c(F)c(F)c(F)c1F)C(=O)O; dBpa = N[C@H](Cc1ccc(C(=O)c2ccccc2)cc1)C(=O)O; dCha = N[C@H](CC1CCCCC1)C(=O)O

What was measured:
M1 and M2 macrophages = assay: Phagocytic activity of M1 and M2 macrophages (fluorescent beads, flow cytometry); type: cell-based, human; conditions: in vitro
Procedure: Referring to FIGS. 19A and 19B, macrophages were obtained by stimulating human peripheral blood mononuclear cells by 0.32 uM of PMA and removing all suspension cells 48 hours of PMA stimulation. The cells were further incubated with 50 ng/ml IFN-gamma, 10 ng/ml LPS to obtain M1 phenotype, and 20 ng/ml IL-4 to obtaine M2 macrophages. Both treatment was with or without CBP501. The phagocytic activity was monitored by using fluorescent labelled beads and flow cytometry.

CT26WT = assay: Analysis of tumor infiltrating lymphocytes in CT26WT tumors (flow cytometry); type: in vivo, mouse; conditions: day 11
Procedure: CT26WT were subcutaneously inoculated into the left flank of female Balb/c mice. […] Then, tumors were extracted from mice on day 11, and digested with triple enzyme mix (collagenase, hyaluronidase and DNase) to obtain single cell suspension. The cells were treated with FcR blocker and stained with specific antibody for multi-color flow cytometry analysis including CD4, CD8, CD45, CD11b, Ly6G, Ly6C, F4/80, MHC class II and CD206. Quantitative data (FIG. 32) are shown as mean values with SEM (n=3-4 mice/group). *: p<0.05, **: p<0.01, n.s.: not significant (unpaired, 2-tailed student's t-test), as compaired with cells from vehicle-treated or PD-1-treated tumor.

advanced solid tumors = conditions: monotherapy, cited from earlier work
[1] = cited from earlier work
phospho-eIF2-alpha = assay: CDDP-induced phosphorylation of eIF2-alpha in CT26WT cells (immunoblotting); type: cell-based, murine; conditions: 10-20 uM CDDP with 0.5 μM CBP501, 45 min
Procedure: A day later, cells were collected and analyzed by immunoblotting using specific antibody against phospho-eIF2-alpha (n=8) (FIG. 22A) and the amount of relative Phospho-eIF2-alpha was quantitated (FIG. 22B). Samples were compared by student's t-test. *P<0.05 **P<0.01, compared with untreated cells, and ^†P<0.05, ^††P<0.01, compared with the corresponding CDDP alone.
After changing with fresh drug-free medium, cells were incubated for 24, 48, or 72 hours for Immunoblotting analysis of phospho-eIF2-alpha, for calreticulin analysis by FACS, or for HMGB1 ELISA.
Cells were lysed by incubating with a buffer [NaCl (100 mM), Tris-HCl (50 mM, pH 8.0), DTT (1 mM), NP40 (0.5% w/v) containing PhosSTOP Phosphatase Inhibitor Cocktail and Complete Proteinase Inhibitor Cocktail Tablets (Roche Life Science) each diluted to the manufacturer's specified concentrations] at 4° C. for 30 minutes and centrifuged (15 000 rpm, 4° C., 20 minutes). The supernatant (whole-cell lysate) was electrophoresed (SDS-PAGE), and transferred from the gel onto a polyvinylidene difluoride (PVDF) membrane (Millipore) by electroblotting. […] Images were recorded with a Luminescent Image Analyzer LAS-4000 system (Fujifilm) and quantified the band intensity with Multi Gauge software (Fujifilm).

HCT116 = assay: G2 checkpoint abrogation by CBP501 combined with cis-platin, flow cytometry; type: cell-based; conditions: HCT116, colon, hMLH1; cis-platin 3 μg/ml 3 hr, then 45 hr
Procedure: (§1) The medium was aspirated, fresh medium without these compounds was added and the cells were incubated for an additional 45 hr. The cells including floating cells were harvested using trypsin-EDTA solution, incubated with Krishan's solution and analyzed for DNA content by flow cytometry as previously described.

SK-OV-3 = assay: as above; type: cell-based; conditions: SK-OV-3, ovary, hMLH1; cis-platin 3 μg/ml 3 hr, then 45 hr
Procedure: as §1

HT-29 = assay: as above; type: cell-based; conditions: HT-29, colon; cis-platin 3 μg/ml 3 hr, then 45 hr
Procedure: as §1

Panc1 = assay: as above; type: cell-based; conditions: Panc1, pancreas; cis-platin 3 μg/ml 3 hr, then 45 hr
Procedure: as §1

MK45 = assay: as above; type: cell-based; conditions: MK45, stomach; cis-platin 3 μg/ml 3 hr, then 45 hr
Procedure: as §1

MCF-7 = assay: as above; type: cell-based; conditions: MCF-7, mammary gland; cis-platin 3 μg/ml 3 hr, then 45 hr
Procedure: as §1

DU-145 = assay: as above; type: cell-based; conditions: DU-145, prostate, MLH1; cis-platin 3 μg/ml 3 hr, then 45 hr
Procedure: as §1

NCI-H520 = assay: as above; type: cell-based; conditions: NCI-H520, lung, SCC; cis-platin 3 μg/ml 3 hr, then 45 hr
Procedure: as §1

CT26WT cells = conditions: 3 hours treatment, two days later
Procedure: Two days later, the cell cycle phase distribution (Y-axis) and cell death was analyzed by BD FACSCalibur by propidium iodide staining.
For cell cycle analysis, cells collected by trypsine/EDTA (Gibco) were stained with Krishan's buffer (0.1% sodium citrate, 50 Ag/mL propidium iodide, 20 Ag/mL RNase A, 0.5% NP40) followed by flow cytometry using FACSCalibur (Becton Dickinson).

N=C(N)NCCC[C@@H](NC(=O)[C@@H](CCCNC(=N)N)NC(=O)[C@@H](CCC(N)=O)NC(=O)[C@@H](CCCNC(=N)N)NC(=O)[C@@H](CCCNC(=N)N)NC(=O)[C@@H](CCCNC(=N)N)NC(=O)[C@@H](CC1CCCCC1)NC(=O)[C@@H](Cc1c(F)c(F)c(F)c(F)c1F)NC(=O)[C@@H](CO)NC(=O)[C@@H](Cc1c[nH]c2ccccc12)NC(=O)[C@@H](CO)NC(=O)[C@H](N)Cc1ccc(C(=O)c2ccccc2)cc1)C(=O)O [CBP501, (d-Bpa)(d-Ser)(d-Trp)(d-Ser)(d-Phe-2,3,4,5,6-F)(d-Cha)(d-Arg)(d-Arg)(d-Arg)(d-Gln)(d-Arg)(d-Arg)] (H-[dBpa][dS][dW][dS][dPhe(F5)][dCha][dR][dR][dR][dQ][dR][dR]-OH; N-terminus and C-terminus assumed)
Phagocytosis of M1 and M2 macrophages (M1 and M2 macrophages): inhibited phagocytosis of both M1 and M2 macrophages | CD8 (=CD45+CD8+) infiltration at tumor site, combined with CDDP and anti-PD1 antibody (CT26WT; CDDP 4 mg/kg + CBP501 6 mg/kg + anti-PD1 400 ug/mouse): statistically significant | CD8 (=CD45+CD8+) infiltration at tumor site, combined with CDDP (CT26WT; CDDP 4 mg/kg i.v. + CBP501 6 mg/kg i.v.): tended to increase | M2 macrophages (=F4/80+CD206+) in tumor (CT26WT; combined with CDDP or CDDP plus anti-PD1 antibody): decreased M2 macrophages | Solubility in water (Solubility in water): soluble in water | Stable disease (advanced solid tumors; 60-min i.v. infusion days 1, 8, 15 every 28 days): Two patients achieved 7 cycles of treatment with stable disease | Discontinuation due to toxicity (advanced solid tumors; days 1-8-15 every 28 days): No patients discontinued due to toxicity | Patients with dose limiting allergic reactions (grade 3) ([1]; CBP501 36.4 mg/m^2 and cisplatin 75 mg/m^2): two out of six | MTD of CBP501 in combination with cisplatin ([1]; with cisplatin 75 mg/m^2, once every 21 days): 24.3 mg/m^2 | CDDP-induced phosphorylation of eIF2-alpha (phospho-eIF2-alpha): augmented | G2 checkpoint abrogating dose of CBP501, cis-platin (HCT116): <2 µM | G2 checkpoint abrogating dose of CBP501, cis-platin (SK-OV-3): 50 µM | G2 checkpoint abrogating dose of CBP501, cis-platin (HT-29): <2 µM | G2 checkpoint abrogating dose of CBP501, cis-platin (Panc1): >10 µM | G2 checkpoint abrogating dose of CBP501, cis-platin (MK45): >10 µM | G2 checkpoint abrogating dose of CBP501, cis-platin (MCF-7): >10 µM | G2 checkpoint abrogating dose of CBP501, cis-platin (DU-145): 0.4 µM | G2 checkpoint abrogating dose of CBP501, cis-platin (NCI-H520): >10 µM | Potency in changing cell cycle phase distribution, CDDP combined with CBP501 vs CDDP alone (CT26WT cells): about 2 times
